Test results reported in ChEMBL document CHEMBL1159247, “Isolation of Novel Beauvericin Analogues from the Fungus Beauveria bassiana” (1995).
Values after ≈ are worked out from the molar mass of the structure shown.

Tested on: Aedes aegypti
Test: Insecticidal in Aedes aegypti fourth instar mosquito larvae after 24 hrs
Format: functional

CC[C@H](C)[C@H]1OC(=O)[C@H](Cc2ccccc2)N(C)C(=O)[C@@H](C(C)C)OC(=O)[C@H](Cc2ccccc2)N(C)C(=O)[C@@H](C(C)C)OC(=O)[C@H](Cc2ccccc2)N(C)C1=O [BEAUVERICIN A]
LC50: 31 µg/mL (≈ 38.8 µM)

CC(C)[C@@H]1OC(=O)[C@@H](Cc2ccccc2)N(C)C(=O)[C@H](C(C)C)OC(=O)[C@@H](Cc2ccccc2)N(C)C(=O)[C@H](C(C)C)OC(=O)[C@@H](Cc2ccccc2)N(C)C1=O [BEAUVERICIN]
LC50: 26 µg/mL (≈ 33.2 µM)
